Among the data in patent US20230080054A1 (ILDONG PHARMACEUTICAL CO., LTD., priority 2021, published 2023) are inhibition values, retold here.

For this experiment, the target named is T1, human ANO6 (Homo sapiens, UniProt Q4KMQ2).
T1 construct: expressed in transfected cells
T1 sequence (Q4KMQ2 1-931 isoform Q4KMQ2-2): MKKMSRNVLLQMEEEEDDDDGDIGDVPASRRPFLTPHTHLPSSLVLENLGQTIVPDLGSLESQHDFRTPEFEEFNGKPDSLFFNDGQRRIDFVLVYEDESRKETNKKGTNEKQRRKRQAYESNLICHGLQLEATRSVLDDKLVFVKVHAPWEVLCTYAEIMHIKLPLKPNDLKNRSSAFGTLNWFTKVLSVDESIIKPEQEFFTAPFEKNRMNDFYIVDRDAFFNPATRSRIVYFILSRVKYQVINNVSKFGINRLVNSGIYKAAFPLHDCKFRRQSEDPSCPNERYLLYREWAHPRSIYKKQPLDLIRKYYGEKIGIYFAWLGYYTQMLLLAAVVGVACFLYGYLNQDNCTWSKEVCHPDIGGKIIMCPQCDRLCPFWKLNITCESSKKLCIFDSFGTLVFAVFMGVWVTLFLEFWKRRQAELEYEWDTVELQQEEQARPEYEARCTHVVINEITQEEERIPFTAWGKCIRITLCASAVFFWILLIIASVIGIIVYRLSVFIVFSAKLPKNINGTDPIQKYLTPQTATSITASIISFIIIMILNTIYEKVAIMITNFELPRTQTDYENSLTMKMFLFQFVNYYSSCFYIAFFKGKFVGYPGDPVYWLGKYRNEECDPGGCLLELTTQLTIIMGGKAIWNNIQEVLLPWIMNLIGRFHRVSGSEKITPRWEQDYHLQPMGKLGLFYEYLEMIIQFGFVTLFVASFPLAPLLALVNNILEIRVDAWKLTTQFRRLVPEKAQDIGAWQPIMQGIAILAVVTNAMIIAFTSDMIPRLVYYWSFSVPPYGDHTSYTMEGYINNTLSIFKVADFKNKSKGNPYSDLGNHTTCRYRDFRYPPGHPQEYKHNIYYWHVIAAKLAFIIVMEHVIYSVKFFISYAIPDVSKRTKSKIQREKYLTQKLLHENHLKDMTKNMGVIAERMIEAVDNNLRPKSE
Briefly: YFP quenching assay (ANO6 ion channel activity). The following applies: 10 μM ionomycin; for inhibition at 1 µM: test compound 1 μM, read-out: Inhibition Level 1 μM; for inhibition at 30 µM: test compound 30 μM, read-out: Inhibition Level 30 μM. The experiment is classed as cell-based. An excerpt:
Example 3: YFP Quenching Assay
1. Materials and Instruments
Ionomycin (Alomonelab cat. #I-700), FLUOstar Omega microplate reader (BMG Labtech, Ortenberg, Germany), and MARS Data Analysis Software (BMG Labtech)
Fisher rat thyroid (FRT) cells stably expressing human ANO6 (GenBank accession no. NP_001191732.1, provided by J. H. Nam, Dongguk University College of Medicine, Korea) and halide sensor mutant YFP-H148Q/I152L/F46L) were constructed and grown in Dulbecco's modified Eagle's medium Nutrient Mixture F-12 (DMEM/F-12) supplemented 10% FBS, 100 units/mL penicillin, 500 μg/mL hygromycin B and 100 μg/mL neomycin.
Fisher rat thyroid (FRT) cells stably expressing human ANO6 and halide sensor mutant YFP (H148Q/I152L/F46L) were seeded in black walled 96 well plates and incubated in a 37° C., 5% CO2 incubator to reach about 100% cell confluency. Then, each well of the 96 well plates were washed for several times with phosphate buffered saline (PBS), and 50 μL of PBS was added to each well. Test compounds (100× in DMSO) were added to each well to be 1% v/v DMSO. After incubation for 10 minutes in 40° C., the 96 well plates were transferred to a plate reader, and YFP fluorescence changed by SCN-introduced into cells through activated ANO6 were measured by the following steps.
(1) YFP fluorescence signals were recorded in every 0.4 seconds.
(2) Basal YFP fluorescence signals were recorded for 1 second.
(3) 140 mM SCN-(50 μL) containing 10 μM ionomycin was injected to each well, and YFP fluorescence signals were recorded.
The inhibitory activity (%) of each of the test compounds was obtained by the following steps.
(1) Background signals were subtracted from recording values, and the resulting values were converted to relative percentages. The values at 0 second were set to be 100%.
(2) Differences between the values at 3.6 seconds and those of at 7.6 seconds were calculated.
(3) In each row of 96 well plate, the inhibitory activity of each of the test compounds was calculated as percentages. The inhibitory activity of a negative control group to which neither compounds nor ionomycin were treated was set to be 100%, and the inhibitory activity of a positive control group to which ionomycin was treated and compounds were not treated was set to be 0%.
(4) The assay was performed in duplicate or triplicate, and the results were averaged.

Some results are limits rather than exact numbers.

Take `O=C(NCc1ccc2c(c1)OCO2)c1cccc(Nc2ccc(-c3ccc(F)cc3)nn2)c1` [Compound A17]: the inhibition (usually how much of the control response was suppressed) at 1 µM was in the range of 30 to 60% and the inhibition at 30 µM was ≥ 60%.

For `Cc1ccc(CNC(=O)c2cccc(Nc3ccc(-c4ccccn4)nn3)c2)o1` [Compound 23, N-[(5-methylfuran-2-yl)methyl]-3-{[6-(pyridin-2-yl)pyridazin-3-yl]amino}benzamide], the inhibition at 1 µM was < 30% and the inhibition at 30 µM is ≥ 60%.

Regarding `O=C(NCC1COC1)c1cccc(Nc2ccc(-c3ccccc3)nn2)c1` [Compound 35, N-[(oxetan-3-yl)methyl]-3-[(6-phenylpyridazin-3-yl)amino]benzamide], the inhibition at 1 µM is < 30% and the inhibition at 30 µM was ≥ 60%.

Regarding `COc1ccc(CNC(=O)c2cccc(Nc3ccc(-c4ccc(F)cc4)nn3)c2)c(OC)c1` [Compound A9], the inhibition at 30 µM is 30 to 60%.

On to `Cc1ccc(CNC(=O)c2cccc(Nc3ncc(-c4cc5ccccc5o4)cn3)c2)o1` [Compound 111, 3-{[5-(1-benzofuran-2-yl)pyrimidin-2-yl]amino}-N-[(5-methylfuran-2-yl)methyl]benzamide], for which the inhibition at 1 µM was < 30%.

`Cc1ccc(CNC(=O)c2cccc(Nc3ccc(-c4ccco4)nn3)c2)o1` [Compound 8, 3-{[6-(furan-2-yl)pyridazin-3-yl]amino}-N-[(5-methylfuran-2-yl)methyl]benzamide]: the inhibition at 1 µM is 30 to 60% and the inhibition at 30 µM is ≥ 60%.

In the case of `Cc1ccc(CNC(=O)c2cccc(Nc3nnccc3C)c2)o1` [Compound 48, N-[(5-methylfuran-2-yl)methyl]-3-[(4-methylpyridazin-3-yl)amino]benzamide], the inhibition at 1 µM was < 30%.

Regarding `O=C(NC1CCOCC1)c1cccc(Nc2ccc(-c3ccccc3)nn2)c1` [Compound 28, N-(oxan-4-yl)-3-[(6-phenylpyridazin-3-yl)amino]benzamide], the inhibition at 1 µM is < 30% and the inhibition at 30 µM was ≥ 60%.

In the case of `O=C(NCCN1CCCCC1)c1cccc(Nc2ncc(-c3ccccc3)cn2)c1` [Compound 93, 3-[(5-phenylpyrimidin-2-yl)amino]-N-[2-(piperidin-1-yl)ethyl]benzamide], the inhibition at 1 µM was < 30%.

In the case of `Cc1ccc(-c2ccc(Nc3cccc(C(=O)NC(C)C)c3)nn2)cc1` [Compound A31], the inhibition at 1 µM was 30 to 60% and the inhibition at 30 µM is ≥ 60%.

Turning to `CCOC(=O)c1cccc(-c2cnc(Nc3cccc(C(=O)NCc4ccc(C)o4)c3)nc2)c1` [Compound 101, ethyl 3-{2-[(3-{[(5-methylfuran-2-yl)methyl]carbamoyl}phenyl)amino]pyrimidin-5-yl}benzoate], the inhibition at 1 µM is < 30%.

Turning to `Cc1ccc(-c2ccc(Nc3cccc(C(=O)NCc4ccc(F)cc4)c3)nn2)cc1` [Compound A23], the inhibition at 30 µM is 30 to 60%.

Consider `O=C(NCc1cccnc1)c1cccc(Nc2ccc(-c3ccccc3)nn2)c1` [Compound 20, 3-[(6-phenylpyridazin-3-yl)amino]-N-[(pyridin-3-yl)methyl]benzamide], for which the inhibition at 1 µM lay in the range of 30 to 60% and the inhibition at 30 µM was ≥ 60%.

As to `O=C(NCCN1CCCCC1)c1cccc(Nc2ccc(-c3ccccc3)nn2)c1` [Compound A90], the inhibition at 1 µM is < 30%.

For the compound `O=C(NCCN1CCCC1)c1cccc(Nc2ncc(-c3ccccc3)cn2)c1` [Compound 94, 3-[(5-phenylpyrimidin-2-yl)amino]-N-[2-(pyrrolidin-1-yl)ethyl]benzamide], the inhibition at 1 µM is < 30%.

Turning to `O=C(NCC1CCCO1)c1cccc(Nc2ncc(-c3cccc(F)c3)cn2)c1` (stereo not drawn) [Compound A83], the inhibition at 1 µM fell in the range of 30 to 60%.

`Cc1ccc(CNC(=O)c2cccc(Nc3ccnc(-c4cccc(F)c4)n3)c2)o1` [Compound A21]: the inhibition at 30 µM is < 30%.

As to `Cc1ccc(CNC(=O)c2cccc(Nc3ccc(-c4ccc(Cl)c(Cl)c4)nn3)c2)o1` [Compound 16, 3-{[6-(3,4-dichlorophenyl)pyridazin-3-yl]amino}-N-[(5-methylfuran-2-yl)methyl]benzamide], the inhibition at 30 µM is < 30%.

With `COCCCNC(=O)c1cccc(Nc2ccc(-c3ccccc3)nn2)c1` [Compound A69], the inhibition at 1 µM lay in the range of 30 to 60% and the inhibition at 30 µM was ≥ 60%.

Turning to `Cc1ccc(CNC(=O)c2cccc(Nc3ncc(-c4ccc5c(c4)OCO5)cn3)c2)o1` [Compound 103, 3-{[5-(2H-1,3-benzodioxol-5-yl)pyrimidin-2-yl]amino}-N-[(5-methylfuran-2-yl)methyl]benzamide], the inhibition at 1 µM was < 30%.

Take `Cc1ccc(CNC(=O)c2cccc(Nc3ccc(CCc4ccccc4)nn3)c2)o1` [Compound 76, N-[(5-methylfuran-2-yl)methyl]-3-{[6-(2-phenylethyl)pyridazin-3-yl]amino}benzamide]: the inhibition at 1 µM is < 30%.

With `Cc1ccc(CNC(=O)c2cccc(Nc3ncc(-c4ccccc4)nn3)c2)o1` [Compound 12, N-[(5-methylfuran-2-yl)methyl]-3-[(6-phenyl-1,2,4-triazin-3-yl)amino]benzamide], the inhibition at 1 µM lay within 30 to 60% and the inhibition at 30 µM was in the range of 30 to 60%.

For the compound `Cc1ccc(CNC(=O)c2cccc(Nc3ccc(C4CCN(C(=O)OC(C)(C)C)CC4)nn3)c2)o1` [Compound 69, tert-butyl 4-{6-[(3-{[(5-methylfuran-2-yl)methyl]carbamoyl}phenyl)amino]pyridazin-3-yl}piperidine-1-carboxylate], the inhibition at 1 µM is < 30%.

Regarding `COc1cccc(C(C)NC(=O)c2cccc(Nc3ccc(-c4ccccc4)nn3)c2)c1` (stereo not drawn) [Compound A79], the inhibition at 1 µM lay within 30 to 60% and the inhibition at 30 µM was ≥ 60%.

Take `Cc1ccc(CNC(=O)c2cccc(Nc3ccc(C4CCOCC4)nn3)c2)o1` [Compound 49, N-[(5-methylfuran-2-yl)methyl]-3-{[6-(oxan-4-yl)pyridazin-3-yl]amino}benzamide]: the inhibition at 1 µM was < 30%.

On to `Cc1ccc(Nc2cccc(C(=O)NCc3ccc(C)o3)c2)nn1` [Compound 47, N-[(5-methylfuran-2-yl)methyl]-3-[(6-methylpyridazin-3-yl)amino]benzamide], for which the inhibition at 1 µM is < 30%.

Take `Cc1ccc(CNC(=O)c2cccc(Nc3cnc(-c4ccccc4)nc3)c2)o1` [Compound 11, N-[(5-methylfuran-2-yl)methyl]-3-[(2-phenylpyrimidin-5-yl)amino]benzamide]: the inhibition at 1 µM is 30 to 60% and the inhibition at 30 µM was ≥ 60%.

As to `COc1ccc(OC)c(CNC(=O)c2cccc(Nc3ccc(-c4ccccc4)nn3)c2)c1` [Compound A60], the inhibition at 1 µM was 30 to 60% and the inhibition at 30 µM was ≥ 60%.

Consider `Cc1ccc(CNC(=O)c2cccc(Nc3ccc(C4CCN(C)CC4)nn3)c2)o1` [Compound 70, N-[(5-methylfuran-2-yl)methyl]-3-{[6-(1-methylpiperidin-4-yl)pyridazin-3-yl]amino}benzamide], for which the inhibition at 1 µM is < 30%.

In the case of `NC(=O)c1cccc(Nc2ccc(-c3ccccc3)nn2)c1` [Compound 17, 3-[(6-phenylpyridazin-3-yl)amino]benzamide], the inhibition at 30 µM was in the range of 30 to 60%.
